According to patent publication US10973925B2, “Methods and compositions for theranostic nanoparticles” (University of Central Florida Research Foundation, Inc., priority 2015, dated 2021):
Entries after “also recorded” stand apart in the source; their conditions may differ. Residues, ends and D or L forms follow the SMILES beside them.

Tests used:
[1] = test system: PSMA positive LNCaP cells; conditions: LNCaP cell viability
From the text: The amount of encapsulated abiraterone was estimated following a reported protocol and defined as encapsulation efficiency.

[2] = test system: PSMA-expressing PCa cells; test: Effects of CT20p upon cell adhesion and anoikis; format: cell-based
Protocol: An essential activity that promotes the invasiveness of metastatic cells is rearrangement of the cytoskeleton, which can be linked to integrin signaling. […] At selected time points, PCa cells (Table 1) as well as control cells were treated with Mitotracker Red to visualize mitochondria and then were fixed on coverslips for staining with Alexa Fluor™ 647 phalloidin, a high-affinity F-actin probe, or Deoxyribonuclease I, Alexa Fluor™ 488-conjugate for G-actin for imaging by confocal microscopy (Zeiss 710). To examine how integrin signaling was impaired by CT20p, the surface expression of integrins detected with fluorescence-conjugated antibodies (β1, CD29 and αVβ3, CD51/61) by flow cytometry, was examined. Levels of additional integrins (αV or α5) were also evaluated by immunoblotting cell lysates. To determine whether cell detachment and the reduction in integrin levels could activate anoikis, the CytoSelect® 96-well Anoikis Assay Kit was used and standard assays of cell migration and invasion were performed. Additionally, to test the effects of CT20p under conditions of directed migration, the cells described above were treated with conditioned media from 3T3 cells, which contains chemotactic factors.

cancer cells [3] = conditions: expression or introduction of CT20p in cancer cells; cited from earlier work
cancer cells [4] = test: CT20p activities in cancer cells (timeline); format: cell-based
Protocol: FIGS. 18A-18J illustrate a timeline of CT20p activities in cancer cells. […] Gates are N, necrotic; V, viable; A, apoptotic. Percentages are V (black) and N+A (red). FIG. 18E is a graph showing that by 6 hours, cells detach from the substrate (fibronectin). Such cell detachment was measured using a crystal violet adhesion assay.
(§1) Recently, a mitotoxic peptide that kills cancer cells was discovered. […] Cell death (anoikis), indicated by membrane asymmetry, was detectable in cancer cells by 48 hours (FIG. 18J). […] These findings indicate that CT20p impairs cancer cell invasiveness through its actions on mitochondria and the cytoskeleton, which causes detachment-induced cell death.

cells = conditions: cited from earlier work
PSMA(+) PC3 tumors = conditions: two week experiment (FIG. 22D)
Protocol: FIG. 22A depicts an image of mice that were injected subcutaneously (SC) with PSMA(+) (right flank) or PSMA(−) (left flank) PCa tumor cells. Upon tumor detection (˜2 weeks), the mice were injected intravenously (IV) with PEG-(FOL)-HBPE-NPs (2 mg/kg/dose) containing a near IR dye (FIG. 22A) or CT20p (FIG. 22B). Mice were imaged after 24 hours (FIG. 22A) or sacrificed after 10 days (FIG. 22B). […] FIG. 22D is a graph that summarizes a two week experiment in which mice (n=5) bearing PSMA+ tumors (SC) were IV injected once per week with FOL-HBPE-NPs (2 mg/kg/dose) that were empty or had CT20p and were compared to COOH-NPs (untargeted) with CT20p or FOL-targeted doxorubicin (DOX). *p<0.05. The mice were euthanized before the tumors ulcerated.

normal cells = test: CT20p in normal cells / control epithelial cell line; format: cell-based
Protocol: as §1

macrophages (RAW cells) = test: Cell death of non-transformed cells (Sytox analysis); format: cell-based
Protocol: FIGS. 21A-21J show dose- (FIGS. 21A, 21C) and time- (FIGS. 21D, 21F) dependent cytotoxicity assay of PCa cells treated with Folate.HBPE(Dil)-NPs. PCa Cells: LNCap (FIGS. 21A, 21D), PSMA(+) PC3 (FIGS. 21B, 21E) and PC3 (FIGS. 21C, 21F). […] V, viable; N, necrotic, A, apoptotic.
To study any effect that folate-HBPE (CT20p)-NPs may have on non-transformed cells, macrophages (RAW cells) were incubated with the folate-HBPE(CT20p)-NPs and cell death was assessed.

[5] = test system: PCa primary tumors and metastatic lesions
Protocol: Results were compared with those obtained with free doxorubicin or folate-ss-doxorubicin. Again, the lead HBPE-NP preparations from Experiment 2 were used. Male SCID mice were used that are either intact or castrated and treated with testosterone (SC) or DHT pellet. SCID mice were injected SC with luciferase expressing LNCaP cells and, upon tumor growth, D-luciferin was injected prior to imaging (IVIS, Perkin Elmer). In all experiments, NPs without targeting ligand or without CT20p were used as controls. Mice were injected once every week, for 3-4 weeks, with control DFO-HBPE-NPs or PSMA-targeted DFO-HBPE(CT20p)-NPs. Tumor growth was monitored by measuring the tumor size using a caliper or by ultrasound as well as by bio-luminescence as described above. In addition, blood was collected for weekly PSA measurements (with a commercially available ELISA), using the value prior to therapy as a baseline. The tumors were followed for 6 weeks or until reaching 1.5 cm in size (whichever came first). At experimental endpoints, remaining tumor tissue, as well as liver, spleen, kidney, lungs and brain, were collected and examined by immunohistochemistry (using J591 to identify PSMA) and also qRT-PCR and quantitative Western Blot for PSMA levels in the tumor to correlates with response to the targeted therapy. […]

[6] = by 24 hours post-CT20p treatment

Work on C[C@]12CC[C@H](O)CC1=CC[C@@H]1[C@@H]2CC[C@]2(C)C(c3cccnc3)=CC[C@@H]12 [abiraterone] yielded an IC50 [1] of 2550 nM.
In the case of CC[C@H](C)[C@H](NC(=O)[C@@H](NC(=O)[C@H](CC(C)C)NC(=O)[C@H](CO)NC(=O)[C@H](C)NC(=O)[C@@H](NC(=O)[C@H](CC(C)C)NC(=O)[C@@H](NC(=O)CNC(=O)[C@H](C)NC(=O)[C@@H](NC(=O)[C@H](Cc1ccccc1)NC(=O)[C@@H](NC(=O)[C@@H](NC(=O)[C@@H](NC(C)=O)C(C)C)[C@@H](C)O)[C@@H](C)CC)C(C)C)C(C)C)[C@@H](C)O)[C@@H](C)O)C(=O)N[C@@H](Cc1c[nH]c2ccccc12)C(=O)N[C@@H](CCCCN)C(=O)N[C@@H](CCCCN)C(=O)N[C@@H](CCSC)C(=O)NCC(N)=O [CT20p] (Ac-VTIFVAGVLTASLTIWKKMG-NH2), the “F-actin and integrin signaling” value [2] is given as “loss of F-actin and reduced integrin signaling”, the “block of cell death by Bcl-2 overexpression, Bax deficiency or caspase inhibition” value (cancer cells [3]) is given as “minimally blocked it” and the “concentration range in which the peptide works” value (cancer cells [4]) is given as “nanomolar range”. The ROS production (cancer cells [4]; [6]) was “increased ROS production”, the autophagy (cancer cells [4]; [6]) was “induction of autophagy” and the caspases (cancer cells [4]; [6]) was “activation of caspases”. The mitochondrial membrane effect (cancer cells [4]; cancer cells) was “hyperpolarization of the mitochondrial membrane and fusion-like aggregation; also recorded: mitochondrial membranes hyperpolarize and fuse”, the “β1 integrin surface level” value (cancer cells [4]; prior to cell detachment) was “decreased surface expression of β1 integrin; also recorded: membrane levels of β1 integrin decreased” and the “co-localization of peptide with mitochondria” value (cancer cells [4]; ˜3.4 nM CT20p in NPs, cancer cells) was “co-localization of the peptide (red) with mitochondria (green) was detected”. The uptake by cells (cells) was “not taken up by cells”, the “efficacy in PSMA+ tumors” value (PSMA(+) PC3 tumors) was “more effective than drugs like Doxoyrubucin” and the “mitochondrial localization, autophagosome formation or cell death” value (normal cells; control epithelial cell line) was “not observed”. The cell death (normal cells; normal cells (FIG. 19C)) was “minimal cell death was detected”.
For COc1cccc2c1C(=O)c1c(O)c3c(c(O)c1C2=O)C[C@@](O)(C(=O)CO)C[C@@H]3O[C@H]1C[C@H](N)[C@H](O)[C@H](C)O1 [Doxorubicin], the toxicity to macrophages (macrophages (RAW cells)) was “death of macrophages was observed”, the tumor regression ([5]; also castration and hormone signaling conditions) was “Tumor regression also occurs” and the off-target toxicity ([5]; mouse, in vivo) was “off-target toxicity was observed”.
